Test results taken from patent US20240360122A1, “POLYMORPHIC FORMS AND SALTS OF A GLP-1R AGONIST” (Terns (Suzhou) Biotechnology Co., Ltd., priority 2023, published 2024).

Assay: Approximate solubility in different solvents at RT
Type: physicochemical
Method: For each experiment, approximately 2 mg of sample was added into a 3-mL glass vial. Corresponding solvents were then added stepwise (50/50/200/700/1000 μL) into the vials until the solids were dissolved visually or a total volume of 2 mL was reached. Solubility results summarized in Table 64 to Table 66 were used to guide the solvent selection in polymorph screening design.

For N#Cc1ccc(COc2cccc(C3CCN(Cc4nc5ccc(C(=O)O)cc5n4Cc4cncs4)CC3)n2)c(F)c1 [Freeform Type D], the Approximate solubility (1,4-Dioxane, RT) was “S < 1.1 mg/mL”, the Approximate solubility (2-MeTHF, RT) was “S < 1.0 mg/mL” and the Approximate solubility (Anisole, RT) was “S < 1.0 mg/mL”. The Approximate solubility (CHCl3, RT) was “S < 1.1 mg/mL”, the Approximate solubility (CPME, RT) was “S < 0.9 mg/mL” and the Approximate solubility (DMSO, RT) was “S > 44.0 mg/mL”. For the same molecule, the Approximate solubility (H2O, RT) was “S < 1.1 mg/mL”, the Approximate solubility (IPA, RT) was “S < 1.1 mg/mL” and the Approximate solubility (MTBE, RT) was “S < 1.1 mg/mL”. For the same molecule, the Approximate solubility (Toluene, RT) was “S < 1.0 mg/mL” and the Approximate solubility (n-Heptane, RT) was “S < 1.0 mg/mL”.
